This experiment has as its target Factor D (Homo sapiens (Human), UniProt P00746). Briefly: Factor D esterolytic assay (Z-Lys-SBzl substrate, DTNB, 405 nm). It counts as biochemical. To be noted: Z-Lys-SBzl 1.29 mM, pH 7.5, 10% DMSO, tested a minimum of three times, read-out: Measured Ki (IC50) Value for Compounds: IC50. The gist of the method: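 Human Factor D ([…]) with 1.29 mM Z-Lys-SBzl in 100 mM HEPES, 500 mM NaCl, pH 7.5, 10% DMSO; substrate added immediately or after room-temperature preincubation. Released thiol reacted with DTNB, rate followed at 405 nm for 600 sec, 690 nm background subtracted. IC50 from percent inhibition versus uninhibited rate, n≥3.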

Experimental findings from patent US11370774B2, “Substituted benzofuran, benzopyrrole, benzothiophene, and structurally related complement inhibitors” (BioCryst Pharmaceuticals, Inc., priority 2018, dated 2022) are described below.

As usually defined, the IC50 is the concentration that gives 50% inhibition.

Sequence of Factor D (P00746 26-253): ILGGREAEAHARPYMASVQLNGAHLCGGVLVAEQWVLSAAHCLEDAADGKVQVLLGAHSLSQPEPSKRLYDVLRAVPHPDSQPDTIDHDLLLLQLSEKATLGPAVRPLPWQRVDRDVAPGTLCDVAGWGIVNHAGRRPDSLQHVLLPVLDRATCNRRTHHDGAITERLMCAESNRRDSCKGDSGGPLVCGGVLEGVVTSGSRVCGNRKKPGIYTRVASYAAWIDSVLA

`NCc1cccc(-c2cc(COc3cc(F)ccc3CC(=O)O)cc3cc(F)oc23)c1` [Compound 520c, 2-(2-((7-(3-(aminomethyl)phenyl)-2-fluorobenzofuran-5-yl)methoxy)-4-fluorophenyl)acetic acid]: the IC50 was under 1000 nM.

For the molecule `NCc1ccc(CC(=O)O)c(OCc2cc(-c3ccnc(CN)c3F)c3occc3c2)c1` [Compound 405e, 2-(4-(aminomethyl)-2-((7-(2-(aminomethyl)-3-fluoropyridin-4-yl)benzofuran-5-yl)methoxy)phenyl)acetic acid], the IC50 is under 1000 nM.

As for `NCc1cccc(-c2cc(COc3ccccc3CC(=O)O)cc3cc(C(F)(F)F)oc23)c1` [Compound 199f, 2-(2-((7-(3-(aminomethyl)phenyl)-2-(trifluoromethyl)benzofuran-5-yl)methoxy)phenyl)acetic acid], the IC50 was under 1000 nM.

On to `Cc1cc(-c2ccc(CC(=O)O)c(OCc3cc(-c4cccc(CN)c4)c4occc4c3)c2)ccn1` [Compound 320c, 2-(2-((7-(3-(aminomethyl)phenyl)benzofuran-5-yl)methoxy)-4-(2-methylpyridin-4-yl)phenyl)acetic acid], for which the IC50 is under 1000 nM.

In the case of `NCc1cccc(-c2cc(COc3ccccc3CC(=O)O)cc3cc(COCc4ccccc4)oc23)c1` [Compound 284f, 2-(2-((7-(3-(aminomethyl)phenyl)-2-((benzyloxy)methyl)benzofuran-5-yl)methoxy)phenyl)acetic acid], the IC50 is under 1000 nM.

As to `Cc1ccc(CC(=O)O)c(OCc2cc(-c3ccnc(CN)c3)c3oc(F)cc3c2)c1` [Compound 526b, 2-(2-((7-(2-(aminomethyl)pyridin-4-yl)-2-fluorobenzofuran-5-yl)methoxy)-4-methylphenyl)acetic acid], the IC50 is under 1000 nM.

For the molecule `NCc1cccc(-c2cc(COc3c(CC(=O)O)cccc3-c3ccoc3)cc3ccoc23)c1` [Compound 468h, 2-(2-((7-(3-(aminomethyl)phenyl)benzofuran-5-yl)methoxy)-3-(furan-3-yl)phenyl)acetic acid], the IC50 is under 1000 nM.

With `CC(C)n1ccc2c(-c3ccnc(CN)c3F)cc(COc3cc(F)ccc3CC(=O)O)cc21` [Compound 495d, 2-(2-((4-(2-(aminomethyl)-3-fluoropyridin-4-yl)-1-isopropyl-1H-indol-6-yl)methoxy)-4-fluorophenyl)acetic acid], the IC50 was under 1000 nM.

`NCc1cc(-c2cc(COc3ccccc3CC(=O)O)cc3ccoc23)c2occc2c1` [Compound 335d, 2-(2-((5′-(aminomethyl)-[7,7′-bibenzofuran]-5-yl)methoxy)phenyl)acetic acid]: the IC50 is over 10000 nM.

On to `Cc1cc2c(-c3ccnc(CN)c3)cc(COc3ccccc3CC(=O)O)cc2o1` [Compound 461c, 2-(2-((4-(2-(aminomethyl)pyridin-4-yl)-2-methylbenzofuran-6-yl)methoxy)phenyl)acetic acid], for which the half-inhibitory concentration (IC50) is under 1000 nM.

As to `NCc1cc(-c2cc(COc3ccccc3CC(=O)O)cc3cc(F)oc23)ccn1` [Compound 301b, 2-(2-((7-(2-(aminomethyl)pyridin-4-yl)-2-fluorobenzofuran-5-yl)methoxy)phenyl)acetic acid], the IC50 was under 1000 nM.

With `NCc1cccc(-c2c(F)c(COc3ccccc3CC(=O)O)cc3ccoc23)c1F` [Compound 516c, 2-(2-((7-(3-(aminomethyl)-2-fluorophenyl)-6-fluorobenzofuran-5-yl)methoxy)phenyl)acetic acid], the IC50 is under 1000 nM.

On to `COc1ccc(CC(=O)O)c(OCc2cc(-c3cccc(CN)c3)c3oc(F)cc3c2)c1` [Compound 480c, 2-(2-((7-(3-(aminomethyl)phenyl)-2-fluorobenzofuran-5-yl)methoxy)-4-methoxyphenyl)acetic acid], for which the half-inhibitory concentration (IC50) was under 1000 nM.

In the case of `N#Cc1ccc(-c2ccc(CC(=O)O)c(OCc3cc(-c4cccc(CN)c4)c4occc4c3)c2)s1` [Compound 324c, 2-(2-((7-(3-(aminomethyl)phenyl)benzofuran-5-yl)methoxy)-4-(5-cyanothiophen-2-yl)phenyl)acetic acid], the half-maximal inhibitory concentration (IC50) was under 1000 nM.

On to `NCc1cc(F)cc(-c2cc(C(=O)Nc3ccccc3CC(=O)O)cc3[nH]ccc23)c1` [Compound 19c, 2-(2-(4-(3-(aminomethyl)-5-fluorophenyl)-1H-indole-6-carboxamido)phenyl)acetic acid], for which the IC50 is under 1000 nM.

With `NCc1cccc(-c2cc(COc3cc(F)ccc3CC(=O)O)cc3c(C(F)(F)F)coc23)c1F` [Compound 487b, 2-(2-((7-(3-(aminomethyl)-2-fluorophenyl)-3-(trifluoromethyl)benzofuran-5-yl)methoxy)-4-fluorophenyl)acetic acid], the IC50 was under 1000 nM.

With `Cc1ccc(CC(=O)O)c(OCc2cc(-c3ccnc(CN)c3F)c3oc(F)cc3c2)c1` [Compound 525c, 2-(2-((7-(2-(aminomethyl)-3-fluoropyridin-4-yl)-2-fluorobenzofuran-5-yl)methoxy)-4-methylphenyl)acetic acid], the IC50 was under 1000 nM.

Turning to `Cc1ccc(CC(=O)O)c(OCc2cc(-c3ccnc(CN)c3)c3occc3c2F)c1` [Compound 346c, 2-(2-((7-(2-(aminomethyl)pyridin-4-yl)-4-fluorobenzofuran-5-yl)methoxy)-4-methylphenyl)acetic acid], the IC50 was under 1000 nM.

`COc1ccc(OCc2cc(-c3cccc(CN)c3F)c3ccn(C(C)C)c3c2)c(CC(=O)O)c1` [Compound 475g, 2-(2-((4-(3-(aminomethyl)-2-fluorophenyl)-1-isopropyl-1H-indol-6-yl)methoxy)-5-methoxyphenyl)acetic acid]: the IC50 is under 1000 nM.

Take `NCc1cccc(-c2cc(C(=O)Nc3ccccc3CC(=O)O)cc3c2CCC3)c1` [Compound 160e, 2-(2-(7-(3-(aminomethyl)phenyl)-2,3-dihydro-1H-indene-5-carboxamido)phenyl)acetic acid]: the half-maximal inhibitory concentration (IC50) was under 1000 nM.

With `COCc1cc2cc(COc3cc(OC)ccc3CC(=O)O)cc(-c3ccnc(CN)c3F)c2o1` [Compound 471d, 2-(2-((7-(2-(aminomethyl)-3-fluoropyridin-4-yl)-2-(methoxymethyl)benzofuran-5-yl)methoxy)-4-methoxyphenyl)acetic acid], the IC50 is under 1000 nM.

With `Cc1cc(NC(=O)c2nc(-c3cccc(CN)c3F)nn3cccc23)n(CC(=O)O)n1` [Compound 54d, 2-(5-(2-(3-(aminomethyl)-2-fluorophenyl)pyrrolo[2,1-f][1,2,4]triazine-4-carboxamido)-3-methyl-1H-pyrazol-1-yl)acetic acid], the IC50 is over 10000 nM.

As for `NCc1cccc(-c2cc(COc3ccccc3CC(=O)O)cc3c2OCC3)c1` [Compound 43d, 2-(2-((7-(3-(aminomethyl)phenyl)-2,3-dihydrobenzofuran-5-yl)methoxy)phenyl)acetic acid], the IC50 was under 1000 nM.

Consider `NCc1cccc(-c2cc(C(=O)Nc3ccccc3CC(=O)O)cc3c2ccn3CC2CC2)c1` [Compound 44c, 2-(2-(4-(3-(aminomethyl)phenyl)-1-(cyclopropylmethyl)-1H-indole-6-carboxamido)phenyl)acetic acid], for which the IC50 was under 1000 nM.

In the case of `Nc1noc2c(-c3cc(COc4ccccc4CC(=O)O)cc4ccoc34)cccc12` [Compound 180e, 2-(2-((7-(3-aminobenzo[d]isoxazol-7-yl)benzofuran-5-yl)methoxy)phenyl)acetic acid], the IC50 is under 1000 nM.

With `NCc1nccc(-c2cc(COc3ccccc3CC(=O)O)cc3ccsc23)c1F` [Compound 431c, 2-(2-((7-(2-(aminomethyl)-3-fluoropyridin-4-yl)benzo[b]thiophen-5-yl)methoxy)phenyl)acetic acid], the IC50 is under 1000 nM.

With `NCc1cccc(-c2cc(COc3cccc(F)c3CC(=O)O)cc3ccoc23)c1` [Compound 328f, 2-(2-((7-(3-(aminomethyl)phenyl)benzofuran-5-yl)methoxy)-6-fluorophenyl)acetic acid], the IC50 is under 1000 nM.

In the case of `Cc1oc2c(-c3cccc(CN)c3)cc(COc3ccccc3CC(=O)O)cc2c1-c1ccoc1` [Compound 459h, 2-(2-((7-(3-(aminomethyl)phenyl)-3-(furan-3-yl)-2-methylbenzofuran-5-yl)methoxy)phenyl)acetic acid], the IC50 is under 1000 nM.

As for `NCc1cccc(-c2cc(C(=O)Nc3ccccc3CC(=O)O)cc3[nH]ncc23)c1` [Compound 7d, 2-(2-(4-(3-(aminomethyl)phenyl)-1H-indazole-6-carboxamido)phenyl)acetic acid], the IC50 is under 1000 nM.

Consider `Cc1ccc(CC(=O)O)c(OCc2cc(-c3cccc(CN)c3)c3sccc3c2)c1` [Compound 443i, 2-(2-((7-(3-(aminomethyl)phenyl)benzo[b]thiophen-5-yl)methoxy)-4-methylphenyl)acetic acid], for which the half-maximal inhibitory concentration (IC50) is under 1000 nM.

As for `Cc1ccc(CC(=O)O)c(OCc2cc(-c3cccc(CN)c3F)c3occc3c2)c1C` [Compound 304b, 2-(2-((7-(3-(aminomethyl)-2-fluorophenyl)benzofuran-5-yl)methoxy)-3,4-dimethylphenyl)acetic acid], the IC50 was under 1000 nM.

Turning to `CCCc1cc2cc(COc3ccccc3CC(=O)O)cc(-c3cccc(CN)c3)c2o1` [Compound 187f, 2-(2-((7-(3-(aminomethyl)phenyl)-2-propylbenzofuran-5-yl)methoxy)phenyl)acetic acid], the IC50 was under 1000 nM.

For `NCc1cccc(-c2cc(CC(=O)N3C[C@H](F)C[C@H]3C(=O)NCc3cccc(Cl)c3F)cc3ccoc23)c1` [Compound 368c, (2S,4R)-1-(2-(7-(3-(aminomethyl)phenyl)benzofuran-5-yl)acetyl)-N-(3-chloro-2-fluorobenzyl)-4-fluoropyrrolidine-2-carboxamide], the IC50 was under 1000 nM.

Turning to `Cc1cc2cc(COc3cc(C(N)=O)ccc3CC(=O)O)cc(-c3cccc(CN)c3)c2o1` [Compound 429c, 2-(2-((7-(3-(aminomethyl)phenyl)-2-methylbenzofuran-5-yl)methoxy)-4-carbamoylphenyl)acetic acid], the IC50 was under 1000 nM.
